Results on 20 compounds are retold here after patent US20240150277A1, “Covalent PPARG inverse-agonists” (Bayer Aktiengesellschaft, priority 2022, published 2024).

Where two headings read alike, the source gives them in different places.

Assay [1] concerns the target T1, PPARG receptors (Homo sapiens, UniProt P37231).
T1 construct: leading to PPARG dependent expression of the NanoLuc@ Luciferase; endogenous in cells
T1 sequence (P37231 1-505): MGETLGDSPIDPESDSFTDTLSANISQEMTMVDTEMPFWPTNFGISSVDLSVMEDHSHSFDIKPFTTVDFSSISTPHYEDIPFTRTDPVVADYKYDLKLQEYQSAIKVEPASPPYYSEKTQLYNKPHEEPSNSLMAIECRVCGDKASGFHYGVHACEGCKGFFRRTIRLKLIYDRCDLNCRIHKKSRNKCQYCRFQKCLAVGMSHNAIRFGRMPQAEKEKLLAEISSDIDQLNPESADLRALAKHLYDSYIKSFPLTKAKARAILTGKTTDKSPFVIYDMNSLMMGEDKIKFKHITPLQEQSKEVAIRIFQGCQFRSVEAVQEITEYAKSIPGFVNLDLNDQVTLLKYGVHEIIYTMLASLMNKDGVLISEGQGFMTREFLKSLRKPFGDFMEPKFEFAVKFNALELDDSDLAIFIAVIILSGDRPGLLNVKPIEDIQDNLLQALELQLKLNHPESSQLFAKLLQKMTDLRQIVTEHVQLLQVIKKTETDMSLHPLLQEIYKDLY
Briefly: RT-112-FABP4-NLuc Reporter Gene Assay (inverse agonism). It is filed as cell-based. As to conditions: incubated over night; for IC50: PPARG_RT-112_FABP4_NLuc_inverse agonist IC50 - [mol/l], 50 μM to 0.03 nM; for IC50 / PPARG_RT-112_FABP4_NLuc_inverse agonist Efficacy - [%]: bladder cancer cell line RT-112/84, NanoLuc in FABP4 3′ UTR; for Emax: RT112/84, read-out: PPARG_RT-112_FABP4_NLuc_inverse agonist Efficacy - [%], bladder cancer cell line RT-112/84, NanoLuc in FABP4 3′ UTR. The protocol:
Inverse agonists reduce the basal expression of the Luciferase resulting in a decrease of the Luciferase signal after addition of substrate and cell lysis. To exclude toxic effects of the compounds a parallel measurement of cell viability was performed based on the CellTiter Glo Assay (Promega).
On the next day 10 μl of test compounds dissolved in DMEM/F12 2% FBS and 0,01% BSA are placed in the wells of the microtiter plates. Final concentrations ranged from 50 μM to 0.03 nM. […] On the next day the NanoLuc Luciferase activity was measured by addition of 40 μl of NanoLuc substrate and lysis buffer (Promega, Madison, Wisconsin) diluted in 2 mM Ca-tyrode buffer (20 mM HEPES, 130 mM NaCl, 5 mM KCl, 5 mM NaHCO3, 2 mM MgCl2, pH 7,4). The resulting light signal was measured for 60 seconds in a luminometer. Every sample was tested in quadruples and mean values were used to calculate the IC50 values and efficacies of the compounds.
A general note: In a reporter assay the amount or activity of a reporter protein is the signal.

Assay [2] relates to UMUC9 cells. In words: Proliferation UMUC9 H2B-GFP assay (Incucyte). It is filed as cell-based. As to conditions: 7 days of treatment; for IC50: Day 1 subtracted, percentage of DMSO control; for Emax: UM-UC-9, 168 h. The protocol: Proliferation UMUC9 H2B-GFP assay
Instrument: Incucyte® (Sartorius).
Description: Incucyte® Proliferation Assay measures cell proliferation based on nuclei count using live-cell time-lapse imaging. […] Measurements were performed on the day of treatment (Day 1 reading) and after 7 days of treatment (Day 8 reading). Green fluorescence in cell nuclei is measured using the instrument (Image Channels: Phase, Green; Acquisition time: 300 ms; Magnification: 4×).
Analysis: Selected metrics for analysis: Phase Object Confluence (Percent), Nuclei Count (1/Well) and Total Nuclei Area (μm^2/Well). Day 1 measurements were subtracted from each Day 8 measurement and expressed as percentage of the vehicle (DMSO) control. Percentage proliferation values were then plotted against compound concentration using GraphPad PRISM software. The Sigmoidal 4PL X is log (concentration) model of […] was used. Relative IC50 values and % efficacy (span) is reported below.

The mark [3] stands for this setting: relative IC50, read-out: UM-UC-9 GFP proliferation IC50 -.

In the case of `Cc1cc(N2CCCC(O)C2)ccc1NC(=O)c1cc(C(=O)NCc2ccc(F)c(F)c2)c(F)cc1Cl` (single isomer, unassigned) [Example 5, 4-chloro-N′-[(3,4-difluorophenyl)methyl]-6-fluoro-N^3-{4-[3-hydroxypiperidin-1-yl]-2-methylphenyl}benzene-1,3-dicarboxamide], in assay [1], the IC50 was 1.27 nM and the Emax stood at 116%. The “UM-UC-9 GFP proliferation Efficacy - [%]” value in assay [2] (% efficacy (span)) stood at 78.67%. Moreover, the IC50 in assay [2] (setting [3]) was 5.38 nM.

Take `Cc1cc(N2CCCC(O)C2)ccc1NC(=O)c1cc(C(=O)NCc2ccc(F)c(F)c2)c(F)cc1Cl` (single isomer, unassigned) [Example 6, 4-chloro-N′-[(3,4-difluorophenyl)methyl]-6-fluoro-N^3-{4-[3-hydroxypiperidin-1-yl]-2-methylphenyl}benzene-1,3-dicarboxamide]: the values for the IC50 in assay [1] and in assay [2] (setting [3]) were 4.1 nM and 21.7 nM, respectively. In addition, in assay [1], the “PPARG_RT-112_FABP4_NLuc_inverse agonist Efficacy - [%]” value is 134.50%. The compound also displayed an Emax in assay [2] (% efficacy (span)) of 79.5%.

With `Cc1cc(C(F)(F)F)ccc1NC(=O)c1cc(C(=O)NC(CO)c2ccccc2)c(F)cc1Cl` (single isomer, unassigned) [Example 29, 4-chloro-6-fluoro-N^1-[(1R*)-2-hydroxy-1-phenylethyl]-N^3-[2-methyl-4-(trifluoromethyl)phenyl]benzene-1,3-dicarboxamide], in assay [1], the IC50 stood at 130 nM and the “PPARG_RT-112_FABP4_NLuc_inverse agonist Efficacy - [%]” value is reported as 81.00%.

For the compound `Cc1cc(C(F)(F)F)ccc1NC(=O)c1cc(C(=O)NC(CO)c2ccccc2)c(F)cc1Cl` (single isomer, unassigned) [Example 30, 4-chloro-6-fluoro-N^1-[(1R*)-2-hydroxy-1-phenylethyl]-N^3-[2-methyl-4-(trifluoromethyl)phenyl]benzene-1,3-dicarboxamide], in assay [1], the IC50 turned out to be 17.5 nM and the “PPARG_RT-112_FABP4_NLuc_inverse agonist Efficacy - [%]” value turned out to be 105.50%. The same compound gave an Emax in assay [2] (% efficacy (span)) of 49.6%. For the same compound, in assay [2] (UM-UC-9, relative IC50), the IC50 is 66.1 nM.

Take `Cc1cc(OC(F)F)ccc1NC(=O)c1cc(C(=O)NCc2ccccc2O)c(F)cc1Cl` [Example 1, 4-chloro-N^3-[4-(difluoromethoxy)-2-methylphenyl]-6-fluoro-N′-[(2-hydroxyphenyl)methyl]benzene-1,3-dicarboxamide]: the IC50 in assay [1] amounted to 3.8 nM; in assay [2] (UM-UC-9, relative IC50), 2.89 nM. The Emax is 83.5% in assay [1] and 51.4% in assay [2] (% efficacy (span)).

Take `Cc1cc(OC(F)F)ccc1NC(=O)c1cc(C(=O)NC(CO)c2ccc(F)cc2)c(F)cc1Cl` (stereo not drawn) [Example 2, 4-chloro-N^3-[4-(difluoromethoxy)-2-methylphenyl]-6-fluoro-N^1-[1-(4-fluorophenyl)-2-hydroxyethyl]benzene-1,3-dicarboxamide]: the IC50 was determined as 33 nM in assay [1] and 204 nM in assay [2] (UM-UC-9, relative IC50). For the same compound, the results for the Emax in assay [1] and in assay [2] (% efficacy (span)) were 110% and 72.7%, respectively.

Turning to `O=C(NCc1ccc(F)c(F)c1)c1cc(C(=O)Nc2ccc(OC(F)F)cc2)c(Cl)cc1F` [Example 3, 4-chloro-N^3-[4-(difluoromethoxy)phenyl]-N^1-[(3,4-difluorophenyl)methyl]-6-fluorobenzene-1,3-dicarboxamide], in assay [1], the IC50 turned out to be 3.15 nM and the Emax was 90.5%. Besides, the IC50 in assay [2] (UM-UC-9, relative IC50) was greater than 6000 nM.

`CCCOCc1cc(F)ccc1CNC(=O)c1cc(C(=O)Nc2ccc(C(F)(F)F)cc2C)c(Cl)cc1F` [Example 4, 4-chloro-6-fluoro-N^1-{[4-fluoro-2-(propoxymethyl)phenyl]methyl}-N^3-[2-methyl-4-(trifluoromethyl)phenyl]benzene-1,3-dicarboxamide]: the IC50 in assay [1] was 8.35 nM; in assay [2] (UM-UC-9, relative IC50), 3.22 nM. Besides, the results for the Emax in assay [1] and in assay [2] (% efficacy (span)) were 87% and 138%, respectively.

As to `Cc1cc(OC(F)F)ccc1NC(=O)c1cc(C(=O)NCc2ccc(F)c(F)c2)cc(Cl)c1Cl` [Example 7, 4,5-dichloro-N^3-[4-(difluoromethoxy)-2-methylphenyl]-N^1-[(3,4-difluorophenyl)methyl]benzene-1,3-dicarboxamide], the IC50 in assay [1] worked out at 1.4 nM; in assay [2] (UM-UC-9, relative IC50), 9.09 nM. Also, the values for the Emax in assay [1] and in assay [2] (% efficacy (span)) were 102% and 64.9%, respectively.

Consider `Cc1cc(OCCO)ccc1NC(=O)c1cc(C(=O)NCc2ccc(F)c(F)c2)cc(Cl)c1Cl` [Example 8, 4,5-dichloro-N^1-[(3,4-difluorophenyl)methyl]-N^3-[4-(2-hydroxyethoxy)-2-methylphenyl]benzene-1,3-dicarboxamide], for which the IC50 in assay [1] is 0.9 nM; in assay [2] (UM-UC-9, relative IC50) it was 32.2 nM. Besides, the Emax in assay [1] turned out to be 96%; in assay [2] (% efficacy (span)), 71.5%.

Take `Cc1cccc(-c2nc3cc(NC(=O)c4cc(C(=O)NCc5ccc(F)cc5)cc(Cl)c4Cl)ccc3o2)c1` [Example 9, 4,5-dichloro-N^1-[(4-fluorophenyl)methyl]-N^3-[2-(3-methylphenyl)-1,3-benzoxazol-5-yl]benzene-1,3-dicarboxamide]: the IC50 in assay [1] came to 0.355 nM; in assay [2] (UM-UC-9, relative IC50), 4.51 nM. Further, the Emax in assay [1] came to 105%; in assay [2] (% efficacy (span)), 58.1%.

Regarding `O=C(NCc1ccccc1)c1cc(Cl)c(Cl)c(C(=O)Nc2ccccc2)c1` [Example 16, N1-benzyl-4,5-dichloro-N^3-phenylbenzene-1,3-dicarboxamide], the Emax in assay [2] (% efficacy (span)) was determined as 24.8%. Also, in assay [2] (UM-UC-9, relative IC50), the IC50 was 24.7 nM.

Turning to `O=C(NCc1ccccc1)c1cc(C(=O)Nc2ccccc2)c(Cl)cc1F` [Example 28, N^1-benzyl-4-chloro-6-fluoro-N^3-phenylbenzene-1,3-dicarboxamide], the Emax in assay [2] (% efficacy (span)) worked out at 31.2%.

On to `O=C(NCc1ccccc1)c1cc(Cl)c(Cl)c(C(=O)Nc2ccc(Cl)cn2)c1F` [Example 32, N^1-benzyl-4,5-dichloro-N^3-(5-chloropyridin-2-yl)-2-fluorobenzene-1,3-dicarboxamide], for which, in assay [1], the IC50 stood at 1.3 nM and the Emax turned out to be 74%.

`Cc1cc(N2CCOCC2)cnc1NC(=O)c1cc(C(=O)NCc2ccc(F)c(F)c2)c(F)cc1Cl` [Example 41, 4-chloro-N^1-(3,4-difluorobenzyl)-6-fluoro-N^3-(3-methyl-5-morpholinopyridin-2-yl)isophthalamide] yielded an Emax in assay [2] (% efficacy (span)) of 98.9%.

Take `O=C(NCc1ccccc1)c1ccc(Cl)c(C(=O)Nc2ccccc2)c1` [Example 43, N^1-benzyl-4-chloro-N^3-phenylbenzene-1,3-dicarboxamide]: the Emax in assay [2] (% efficacy (span)) was 27.1%.

`O=C(NCc1ccc(F)cc1)c1ccc(Cl)c(C(=O)Nc2ccccc2)c1` [Example 45, 4-chloro-N^1-[(4-fluorophenyl)methyl]-N^3-phenylbenzene-1,3-dicarboxamide] came in with an Emax in assay [2] (% efficacy (span)) of 57.6%.

`COc1ccccc1CNC(=O)c1ccc(Cl)c(C(=O)Nc2ccccc2)c1` [Example 46, 4-chloro-N^1-[(2-methoxyphenyl)methyl]-N^3-phenylbenzene-1,3-dicarboxamide] showed an Emax in assay [2] (% efficacy (span)) of 70.6%. The same compound came in with an IC50 in assay [2] (UM-UC-9, relative IC50) of 2630 nM.

As to `O=C(NCc1ccccc1)c1ccc(Br)c(C(=O)Nc2ccccc2)c1` [Example 48, N^1-benzyl-4-bromo-N^3-phenylbenzene-1,3-dicarboxamide], the Emax in assay [2] (% efficacy (span)) came out at 43.1%.

`CC(C)(O)c1ccc(NC(=O)c2cc(C(=O)NCc3ccc(F)c(F)c3)c(F)cc2Cl)cc1` [Example 51, 4-chloro-N^1-[(3,4-difluorophenyl)methyl]-6-fluoro-N^3-[4-(2-hydroxypropan-2-yl)phenyl]benzene-1,3-dicarboxamide] yielded an Emax in assay [2] (% efficacy (span)) of 69.2%. This compound also came in with an IC50 in assay [2] (UM-UC-9, relative IC50) of 38.5 nM.
